In patent US20250280826A1, “PLANT GROWTH PROMOTER” (KAO CORPORATION, priority 2022, published 2025):

Columns and labels:
Lotus japonicus = assay: Example 8: number of pods and seed weight in Lotus japonicus; type: in vivo; details: ascorbic acid 1,500 ppm, tap water vs deionized water
Protocol: Medium-term fertilizer effect type culture soil (Takii hydrous cell medium-term fertilizer effect type, Takii & Co., Ltd.) and vermiculite grains (Akagi-Engei Co., Ltd.) were mixed at a volume ratio of 1:1, and the soil was placed in a polypot (diameter: 6 cm, height: 5.5 cm).
The Lotus japonicus seeds used were Miyakojima MG-20 lineage. To a 2 mL microtube (Eppendorf) filled approximately ⅓ with the seeds, 1 mL of concentrated sulfuric acid (FUJIFILM Wako Pure Chemical Corporation) was added and allowed to stand for 10 minutes. After rinsing five times with tap water, the seeds were soaked for two hours. After tap water was supplied in an amount of 100 mL per pot, 3 seeds, which had undergone germination treatment, per pot were each sown at a depth of from about 1 to 2 cm from the soil surface. The number of repeats in each test plot was 8 (n=8). […]
For the preparation of the spraying solutions, BHT of the component (B) was previously dissolved in the component (C), and the components (C) and (D) were then mixed to prepare a second agent. […] The number of pods and seed weight of each plant were measured.

chickpea = assay: Example 7: initial growth index in chickpea (above-ground part dry weight); type: in vivo; details: ascorbic acid 1 500 mass ppm, tap water vs deionized water
Protocol: Medium-term fertilizer effect type culture soil (Takii hydrous cell medium-term fertilizer effect type, Takii & Co., Ltd.) and vermiculite grains (Akagi-Engei Co., Ltd.) were mixed at a volume ratio of 1:1, and the soil was placed in a polypot (diameter: 10.5 cm, height: 9 cm). The chickpea used was seeds of Kabuli species (purchased from Nikko Seed Co. Ltd.). After tap water was supplied in an amount of 250 mL per pot, 2 seeds per pot were each sown at a depth of from about 1 to 2 cm from the soil surface. The number of repeats in each test plot was 6 (n=6). […]
The cultivation conditions and the foliar spray treatment method were the same as those in Example 6 (example of azuki bean). The evaluated test plots 1 to 4 are as follows.
On day 28 after sowing, the plant body was dried at 90° C. for 24 hours, and the above-ground part dry weight of the plant body was then measured. • 1 plot: control (no application) • 2 plot: foliar spray of 1 500 mass ppm ascorbic acid (dissolved in tap water) • 3 plot: foliar spray of 1 500 mass ppm ascorbic acid (dissolved in deionized water) • 4 plot: foliar spray of 1 500 mass ppm ascorbic acid+1 mass ppm BHT+50 mass ppm isobutyl alcohol+350 mass ppm sorbitan monolaurate (dissolved in tap water) […]

O=C1O[C@H]([C@@H](O)CO)C(O)=C1O [ascorbic acid, (R)-3,4-dihydroxy-5-((S)-1,2-dihydroxyethyl)furan-2(5H)-one]
effects on the seed weight (Lotus japonicus): varied in accordance with the water quality
effects on the initial growth index (chickpea): varied in accordance with the water quality
